# Laboratory results from patent publication US9468662B2, “Use of the PAT nonapeptide in the treatment and prevention of neurodegenerative diseases” (ORPHIT, priority 2010, dated 2016).
# No end group written: not given here.
# Columns and labels:
# [1] = tested on: rat primary dopaminergic neurons; assay: Cellular model of Parkinson's disease, survival of rat primary dopaminergic neurons after 6-hydroxydopamine injury; type: cell-based
# From the text: 6-hydroxydopamine (6-OHDA) is a selective catecholaminergic neurotoxin that is not only used as a pharmacological agent able to trigger PD-like stigmata (Sauer H. and Oertel W H Neuroscience 1994; 59: 401 and Cass W A et al. Brain Res. 2002; 938: 29) but also likely corresponds to a natural dopaminergic catabolite that accumulates in PD-affected brains and that appears to strongly contribute to this pathology (Jellinger K. et al. J. Neural. Transm. 1995; 46: 297). For this reason, 6-OHDA-induced dopaminergic neurotoxicity in mice is widely used as a model for PD research. Because 6-OHDA also induces neurodegeneration of dopaminergic neurons in vitro, it provides a useful model of PD. In this in vitro test mesencephalic dopaminergic neurons are exposed to 6-OHDA injury. […] After 24 h of intoxication, viable dopaminergic neurons are visualized and quantified by staining with a monoclonal Anti-Tyrosine Hydroxylase (TH) antibody. Tyrosine Hydroxylase is the first and rate-limiting enzyme involved in the biosynthesis of catecholamines like dopamine and norepinephrin from Tyrosine and has a key role in the physiology of adrenergic neurons. Tyrosine hydroxylase is commonly used as a marker for dopaminergic neurons, which is particularly relevant for research in Parkinson's disease.
# Rat dopaminergic neurons were cultured as described by Schinelli et al. J. Neurochem. 1988; 50: 1900 and Visanji N P et al. FASEB J. 2008; 22: 2488. Briefly, the midbrains obtained from 15-day old rat embryos (Janvier, France) were dissected under a microscope. The embryonic midbrains were removed and placed in ice-cold medium of Leibovitz (L15) containing 2% of Penicillin-Streptomycin (PS) and 1% of bovine serum albumin (BSA). The ventral portion of the mesencephalic flexure, a region of the developing brain rich in dopaminergic neurons, was used for the cell preparations.
# The midbrains were dissociated by trypsinisation for 20 min at 37° C. (Trypsin EDTA 1X). […] Viable cells were counted in a Neubauer cytometer using the trypan blue exclusion test. […]
# [2] = tested on: rat primary GABAergic medium spiny neurons; assay: Cellular model of Huntington's disease, survival of rat primary GABAergic medium spiny neurons after glutamate injury; type: cell-based
# From the text: GABAergic medium spiny neurons (MSNs) in the striatum represent the mostly affected cell population in HD brain. Being the main neuronal cell type of the striatum (85% in humans), GABAergic MSNs play a central role in the clinical manifestation of HD. GABA is viewed as the neurotransmitter that inhibits spontaneous involuntary movements, therefore loss of GABAergic MSNs is responsible for chorea development and other involuntary movements. The exquisite vulnerability of MSNs of striatum to degeneration in HD is caused by glutamate excitotoxicity that leads to neuronal dysfunction and death. Excessive activation of NMDA glutamate receptors is observed in post-mortem HD brain tissue (Kumar P. et al. Pharmacol. Rep. 2010; 62: 1). […] After 24 h of intoxication, viable GABAergic neurons are visualized and quantified by staining with a monoclonal anti-Glutamic Acid Decarboxylase antibody (specific for isoform GAD67). […]
# For each condition, 30 pictures per well were acquired (representing 80% of the total surface of the well) using ImageXpress (Molecular device) equipped with a LED at 20× magnification. […] The number of GAD67-positive neurons was automatically analyzed using MetaXpress software (Molecular device). […] All values were expressed as mean+/−SEM (s.e. mean) (n=6 wells per condition per culture).
# [3] = Crossing of the blood-brain barrier, inferred from activity by intra-peritoneal route; type: in vivo; conditions: concluded from biological activity after intra-peritoneal administration
# From the text: To cross the BBB, persons skilled in the art know that the molecular and physicochemical properties of the molecule must fulfill the 5 criteria described by Lipinski et al. (1997). Adv Drug Del Rev 23: 3-25 (amongst them a low molecular weight, its hydrophobicity, its charge etc. . . . ).
molecule,measurement,setting,value
"NCCc1cc(O)c(O)cc1O [6-OHDA, 6-hydroxydopamine, reference compound]",reduction of survival of TH-positive dopaminergic neurons compared to control culture conditions,"[1]; 6-OHDA 20 μM, 24 h, no protective pre-treatment",31%
"N[C@@H](CCC(=O)O)C(=O)O [glutamate, reference compound]",reduction of survival of GAD67-positive MSN compared to control culture conditions,"[2]; glutamate 10 μM, 20 min, read after 24 h, no protective pre-treatment",38%
"EAKSQGGSD [PAT peptide, Glu-Ala-Lys-Ser-Gln-Gly-Gly-Ser-Asp (EAKSQGGSD)]",passage across the blood-brain barrier,[3],crosses the BBB
same,survival of TH-positive dopaminergic neurons (% of control condition),"[1]; PAT 10 nM, 1 h pre-incubation, then 6-OHDA 20 μM for 24 h",100%
"BNDF: survival promoting brain derived neurotrophic factor used as a positive control (protein, UniProt P23560 19-247, looked up) Neurotrophic factor BDNF …: APMKEANIRGQGGLAYPGVRTHGTLESVNGPKAGSRGLTSLADTFEHVIEELLDEDQKVRPNEENNKDADLYTSRVMLSSQVPLEPPLLFLLEEYKNYLDAANMSMRVRRHSDPARRGELSVCDSISEWVTAADKKTAVDMSGGTVTVLEKVPVSKGQLKQYFYETKCNPMGYTKEGCRGIDKRHWNSQCRTTQSYVRALTMDSKKRIGWRFIRIDTSCVCTLTIKRGR","survival of GAD67-positive neurons (cell survival, % of control)","[2]; BDNF 50 ng/mL (2 nM), 1 h pre-incubation, glutamate 10 μM 20 min, then 24 h",81%
same,protection of TH-positive neurons from 6-OHDA-induced cell death,"[1]; BDNF 50 ng/mL (2 nM), 1 h pre-incubation, 6-OHDA 20 μM 24 h",fully protected
